# In patent US20120301443A1, “METHODS FOR DEVELOPING ENDOTHELIAL CELLS FROM PLURIPOTENT CELLS AND ENDOTHELIAL CELLS DERIVED” (CORNELL UNIVERSITY, priority 2009, published 2012):
# How the values were obtained:
# Format in all cases: cell-based, human
# hVPr-GFP hESCs = assay: Endothelial (EC) differentiation of hVPr-GFP hESC embryoid bodies (phase 1)
# Protocol: Human VPr-GFP hESCs were grown to confluence on Matrigel™ (BD Bioscience) and then incubated in 5 units/ml dispase (Gibco) until colonies were completely detached from the substrate. Human VPr-GFP EBs were washed and cultured in hESC medium on ultra low attachment plates (Corning) and cultured in the conditions described, with replacement of cytokine supplemented medium every 48 hours. Embryoid bodies were fixed in 4% paraformaldehyde and frozen for cryosectioning and staining.
# Embryoid bodies were generated and cultured in base hESC medium, supplemented with the cytokines as shown. Briefly, embryoid bodies were generated in hESC base medium without FGF-2. On the morning following generation of EBs (day 0), medium was supplemented with 20 ng/ml BMP4 (R&D) (removed at day 7); on day 1, medium was supplemented with 10 ng/ml ActivinA (R&D) (removed at day 4); on day 2, medium was supplemented with 8 ng/ml FGF-2 (Peprotech) (remained for the duration of culture); on day 4, EBs were transferred to adherent conditions on Matrigel™-coated plates and medium was supplemented with 25 ng/ml VEGF-A (Peprotech) (remained for the duration of culture); […] duration. Cultures were dissociated using 0.5% Trypsin/EDTA (Gibco) or Accutase (eBioscience). Absolute yield as well as ratio of input hESCs to differentiated ECs was calculated from the number of live cells recovered from differentiation cultures at days 0, 14 and 20. Purified ECs could be frozen and thawed in 10% DMSO with greater than 90% recovery.
# (§1) ECs were isolated from differentiation cultures using Magnetic Activated Cell Sorting (MACS; Miltenyi Biotech) with an antibody against CD31 conjugated to magnetic microbeads. Alternatively, cells were isolated by virtue of the expression of GFP/YFP or a fluorophore conjugated antibody to human CD31 or VEGFR2 (BD) using a FACS AriaII (BD).
# Total RNA was prepared from cultured cells using the RNeasy™ extraction kit (Qiagen) and reverse transcribed using Superscript II reverse transcriptase (Invitrogen) according to the manufacturer's instructions. Relative quantitative PCR was performed on a 7500 Fast Real Time PCR System (Applied Biosystems) using either TaqMan PCR mix along with Id1 and β-actin primer pairs, or SYBR Green PCR mix (Applied Biosystems). […]
# This EC reporter hESC line was also used to monitor the development of a chemically defined, serum-free methodology that could effectively augment vascular differentiation, consisting of two phases. […] Although these growth conditions promoted formation of hVPr-GFP^+ structures, the yield of dissociated hESC-derived ECs obtained by fluorescence-activated cell sorting (FACS) was low, and the few isolated ECs could not be expanded without the majority of derivatives assuming a non-EC phenotype. […]
# [1] = tested on: Id1-YFP hESC-derived CD31+ cells; assay: Id1-YFP hESC-derived CD31+ cells expanded with and without the TGFβ-inhibitor, flow cytometry
# Protocol: A bacterial artificial chromosome (BAC) was modified in order to place yellow fluorescent protein (YFP) under control of the endogenous human Id1 promoter locus. This reporter construct was electroporated into the H9 hESC line, selected for BAC integration using antibiotic resistance and subcloned. Clones were assessed and selected based on expression of YFP in Id1 hESC derivatives following spontaneous differentiation. […] To track Id1 expression in live hESC differentiation cultures, a stable BAC transgenic hESC-line expressing yellow fluorescent protein driven by the Id1-promoter (Id1-YFP) (Example 3 herein) was used (FIG. 3A-C). Differentiated ECs were isolated at day 14 from Id1-YFP cultures (FIG. 1d), sub-fractionating the CD31+ population into Id1-YFP high- and low-expressing cells, and these populations were serially expanded for seven days with and without the TGFβ-inhibitor (FIG. 3B).
# hESC-derived ECs [2] = assay: Absolute yield and ratio of input hESCs to differentiated ECs over phases 1 and 2
# Protocol: (§2) Embryoid bodies were generated and cultured in base hESC medium, supplemented with the cytokines as shown. Briefly, embryoid bodies were generated in hESC base medium without FGF-2. On the morning following generation of EBs (day 0), medium was supplemented with 20 ng/ml BMP4 (R&D) (removed at day 7); on day 1, medium was supplemented with 10 ng/ml ActivinA (R&D) (removed at day 4); on day 2, medium was supplemented with 8 ng/ml FGF-2 (Peprotech) (remained for the duration of culture); on day 4, EBs were transferred to adherent conditions on Matrigel™-coated plates and medium was supplemented with 25 ng/ml VEGF-A (Peprotech) (remained for the duration of culture); on day 7, SB431542 (Tocris) was added at 10 μM concentration and remained for indicated duration. Cultures were dissociated using 0.5% Trypsin/EDTA (Gibco) or Accutase (eBioscience). Absolute yield as well as ratio of input hESCs to differentiated ECs was calculated from the number of live cells recovered from differentiation cultures at days 0, 14 and 20. Purified ECs could be frozen and thawed in 10% DMSO with greater than 90% recovery.
# hESC-derived ECs [3] = assay: Expansion of isolated hESC-derived ECs with or without SB431542 (phase 2)
# Protocol: as §2, §1
# Cryosections were immunocytochemically stained as previous described (James et al., Dev. Biol. 295: 90-102 (2006)). Briefly, samples were permeabilized in PBST and blocked in 5% donkey serum. Samples were incubated for 2 hours in primary antibodies blocking solution, washed 3 times in PBS and incubated in CY3-conjugated secondary antibodies (Jackson Laboratories) for 1 hour. Following washing some sections were counterstained for nucleic acids by TO-PRO3 (Invitrogen) before mounting and imaging by confocal microscopy. Primary antibodies included CD31 (DAKO), CD34 (DAKO), Phospho-HistoneH3, Smooth Muscle Actin (SMA) (DAKO) and VE-cadherin (R&D). […]
# [4] = ECs isolated at day 14, 5 days with vs without SB431542
smiles,measurement,setting,value
"NC(=O)c1ccc(-c2nc(-c3ccc4c(c3)OCO4)c(-c3ccccn3)[nH]2)cc1 [SB431542, 4-[4-(1,3-benzodioxol-5-yl)-5-(2-pyridinyl)-1H-imidazol-2-yl]benzamide]",Oct3/4 and brachyury transcripts,"hVPr-GFP hESCs; QPCR, normalized to ACTB, time course of differentiation",accelerated the reduction
same,hVPr-GFP+ ECs when inhibitor is included from the onset of differentiation,hVPr-GFP hESCs; SB431542 from day 0,absence of hVPr-GFP+ ECs
same,hVPr-GFP+CD31+ ECs,hVPr-GFP hESCs; beginning at 9 days,significant increase
same,expression of SMA,hVPr-GFP hESCs; time course of differentiation,reducing expression of SMA
same,mean fluorescence intensity of CD31,[1]; relative to unstimulated cells,decreased
same,percentage of the CD31+ population,[1]; relative to unstimulated cells,increased
same,Id1 expression (Id1-YFP),[1]; seven days expansion with and without TGFβ-inhibitor,up-regulation of Id1 expression
same,expansion in total number of vascular-committed hESC-derived ECs,"hESC-derived ECs [2]; TGFβ inhibition in phase 1 and 2, 20 days, vs control culture conditions",36 fold
same,population maintaining EC identity,hESC-derived ECs [2]; after phase 1 and phase 2 TGFβ-inhibition,95%
same,ratio of ECs generated from every one hESC input,hESC-derived ECs [2]; over the course of 20 days,7.4 ECs per input hESC
same,cell yield of isolated ECs,"hESC-derived ECs [3]; ECs isolated at day 14, 5-day culture period with vs without SB431542",yielded more cells
same,"cell proliferation, percentage of Phospho-HistoneH3+ (PHH3) mitotic ECs",hESC-derived ECs [3]; [4],increased cell proliferation
same,percentage of total population retaining α-SMA− CD31+ VEcadherin+ phenotype,hESC-derived ECs [3]; [4],higher percentage
